From paper PMC4583781, “Heteropentanuclear Oxalato-Bridged nd–4f (n=4, 5) Metal Complexes with NO Ligand: Synthesis, Crystal Structures, Aqueous Stability and Antiproliferative Activity” (Chemistry (Weinheim an Der Bergstrasse, Germany), 2015)

Legend:
DLD-1 colon cancer model = system: DLD-1 colon cancer model; set-up: method as in PMID 16343446, PMID 17445775; settings: cited from earlier work
[1] = system: HeLa cells (human cervical carcinoma); assay: MTT assay, antiproliferative activity in HeLa cells; format: cell-based; settings: 48 h treatment, 3000 cells per well, read-out: IC50 HeLa (3000 c per w)
Experimental: (§1) Human cervical carcinoma (HeLa), human alveolar basal adenocarcinoma (A549), and normal human fetal lung fibroblast cell line (MRC-5) were maintained as monolayer culture in the Roswell Park Memorial Institute (RPMI) 1640 nutrient medium (Sigma Chemicals Co, USA). RPMI 1640 nutrient medium was prepared in sterile ionized water, supplemented with penicillin (192 IU mL^−1), streptomycin (200 μg mL^−1), 4-(2-hydroxyethyl)piperazine-1-ethanesulfonic acid (HEPES) (25 mM), L-glutamine (3 mM) and 10 % of heat-inactivated fetal calf serum (FCS; pH 7.2). The cells were grown at 37 °C in 5 % CO2 and humidified air atmosphere, by twice weekly subculture.
(§2) Antiproliferative activity of the ruthenium and osmium complexes was determined using 3-(4,5-dimethylthiazol-yl)-2,5-diphenyltetrazolium bromide (MTT, Sigma–Aldrich) assay.[49] Cells were seeded into 96-well cell culture plates (Thermo Scientific Nunc), at a cell density of 3000 cells per well (HeLa), 7000 cells per well (A549), and 5000 cells per well (MRC-5), in 100 μL of culture medium. After 24 h of growth, cells were exposed to the serial dilutions of the tested complexes. Complexes were dissolved in 1 % DMSO: complex 1 at a concentration of 4 mM, complexes 2–5 at a concentration of 1 mM, complexes 6–9 at a concentration of 0.6 mM, as stocks immediately prior use, and afterwards diluted with nutrient medium to desired final concentrations (in range up to 200 μM). Each concentration was tested in triplicate. After incubation periods of 48 h, 20 μL of MTT solutions (5 mg mL^−1 in phosphate buffer solution, pH 7.2) were added to each well. Samples were incubated for 4 h at 37 °C, with 5 % CO2 in a humidified atmosphere. Formazan crystals were dissolved in 100 μL of 10 % sodium dodecyl sulfate (SDS). Absorbances were recorded after 24 h, on an ELISA reader (ThermoLabsystems Multiskan EX 200–240 V), at the wavelength of 570 nm. The IC50 values, defined as the concentrations of the compound causing 50 % cell growth inhibition, were estimated from the dose-response curves.
(§3) The antiproliferative activity of the ruthenium and osmium lanthanide complexes 1–9 was evaluated for 48 h of continuous drug action, using colorimetric MTT assay. The study was performed in two human neoplastic cell lines (HeLa, A549), and human fetal lung fibroblast cell line (MRC-5), which was used as noncancerous model for in vitro toxicity evaluation. The results are shown in Table 5 in terms of IC50 values for 48 h incubation period. IC50 values are calculated as mean values obtained from two to three independent experiments and are presented with their standard deviations.

[2] = system: A549 cells (human alveolar basal adenocarcinoma); assay: MTT assay, antiproliferative activity in A549 cells; format: cell-based; settings: 48 h treatment, 7000 cells per well, read-out: IC50 A549 (7000 c per w)
Experimental: as §1, §2, §3

[3] = system: MRC-5 cells (normal human fetal lung fibroblast); assay: MTT assay, cytotoxicity in noncancerous MRC-5 cells; format: cell-based; settings: 48 h treatment, 5000 cells per well, read-out: IC50 MRC-5 (5000 c per w)
Experimental: as §1, §2, §3

A549 cells = assay: Total intracellular Ru/Os accumulation by ICP-MS; format: cell-based, human; settings: 6 and 24 h, 0.5×IC50 of complexes 4 and 8, ICP-MS, Ru (4) relative to Os (8)
[4] = system: cellular DNA of A549 cells; assay: Ru/Os binding to cellular DNA by ICP-MS; format: cell-based, human; settings: 6 h treatment, 0.5×IC50, ICP-MS
[5] = system: cellular proteins of A549 cells; assay: Ru/Os binding to cellular proteins by ICP-MS; format: cell-based, human; settings: 24 h versus 6 h, 0.5×IC50, ICP-MS
[6] = Stability in aqueous solution by UV/Vis spectroscopy; format: physicochemical; settings: UV/Vis spectroscopy over 96 h
Experimental: Elemental analyses were performed by the microanalytical service of the Faculty of Chemistry of the University of Vienna on a Perkin–Elmer 2400 CHN Elemental Analyzer. UV/Vis spectra were recorded at 25 °C using a Perkin–Elmer Lambda 650 spectrometer equipped with an optical cell of 1 cm path-length in the wavelength range of 200 to 800 nm in combination with a Perkin–Elmer PTP-6 Peltier System. Electrospray ionization (ESI) mass spectrometry measurements were conducted on a Bruker HCT ion trap (Bruker Daltonics GmbH) by using methanol as a solvent. MIR spectra were recorded on a Perkin–Elmer 370 FTIR 2000 instrument using an ATR (attenuated total reflection) unit in the range of 4000–400 cm^−1. Phosphorescence emission spectra were recorded with a Horiba FluoroMax-4 spectrofluorimeter and the data were processed using the FluorEssence v3.5 software package.
The stability of the heteropentanuclear complexes 5 and 9 in aqueous solution has been investigated by UV/Vis spectroscopy over 96 h.

[7] = Stability of pentanuclear assembly in aqueous solution, IR comparison of residue; format: physicochemical; settings: aqueous solution evaporated to dryness after standing 24 h in air
Experimental: To exclude immediate dissociation of the pentanuclear assembly with release of a metal–oxalate fragment an aqueous solution of 5 was evaporated to dryness after standing for 24 h in air and the IR spectra of the residue and freshly prepared compound 5 were compared.

Compound	Efficacy against DLD-1 colon cancer model in vivo (DLD-1 colon cancer model)	IC50 [1] [µM]	IC50 [2] [µM]	IC50 [3] [µM]	Total intracellular accumulation of ruthenium versus osmium (A549 cells)	Metal (Ru/Os) bound to cellular DNA [4]	Change of metal-protein binding with treatment prolongation [5]	Stability in aqueous solution (change of optical spectra) [6]	IR spectra of residue versus freshly prepared compound [7]
N#C[S-].N#C[S-].N#C[S-].[La+3].c1cnc2c(c1)ccc1cccnc12.c1cnc2c(c1)ccc1cccnc12.c1cnc2c(c1)ccc1cccnc12 [La(phen)3(NCS)3]	highly effective	–	–	–	–	–	–	–	–
(nBu4N)5[Y{OsCl3(μ-ox)(NO)}4] [complex 6]	–	152 ± 24	> 200	115 ± 10.7	–	–	–	–	–
(nBu4N)5[Y{RuCl3(μ-ox)(NO)}4] [complex 2]	–	17.9 ± 0.4	56.3 ± 1.1	12 ± 0.3	–	–	–	–	–
(nBu4N)2[RuCl3(ox)(NO)] [complex 1]	–	55.9 ± 5.6	55 ± 1.6	18.1 ± 6.5	–	–	–	–	–
(nBu4N)5[Tb(EtOH){RuCl3(μ-ox)(NO)4}] [complex 4]	–	20 ± 2.4	22.4 ± 3.1	11.9 ± 0.4	five- to eightfold greater	63.4(±1.8) pg metal μg^−1 DNA	increased to a great extent	–	–
(nBu4N)5[Gd(EtOH){RuCl3(μ-ox)(NO)}4] [complex 3]	–	29.1 ± 0.8	26.5 ± 4	11.1 ± 0.1	–	–	–	–	–
(nBu4N)5[Dy(EtOH){RuCl3(μ-ox)(NO)}4] [complex 5]	–	20 ± 2.1	47 ± 6.7	13.2 ± 0.4	–	–	–	no change in the optical spectra observed	no differences in the spectra observed
